Reference: patent US20210338661A1, “NEW USES OF A PURE 5-HT 6 RECEPTOR ANTAGONIST” (SUVEN LIFE SCIENCES LIMITED, priority 2017, published 2021)

Columns and labels:
[1] = test system: ovariectomized female Wistar rats; assay: Object recognition task in ovariectomized rats (in vivo model for dementia due to menopause); design: species or system rat; conditions: SUVN-502 1, 3 and 10 mg/kg, p.o. one hour prior to evaluation, FIGS. 1 and 2
Protocol: Object Recognition Task (In Vivo Model for Dementia Due to Menopause) Bilateral ovariectomy surgery was carried out in 7-8 weeks old female rats. Briefly, animals were anesthetized using Avertin (2,2,2-tri bromo ethanol) at 150 mg/kg, i.p. and were lay down on the surgery table. A midline incision was given on the dorsal region below the rib cage and 1 cm lateral to the either side of midline, a small incision was given on fascia to locate the adipose fat supporting the ovaries. By slowly pulling out the fat tissue, the ovary is identified and excised following the uterine horn ligation with silk sutures. Fascia was also covered with sutures and the similar procedure was repeated on the other side. Superficial skin layers were sutured and gentamicin (15 mg/kg, s.c.) was given as antibiotic and meloxicam (1 mg/kg, i.m.) as analgesic with povidone iodine applied on superficial skin layers at last. Episodic memory which is a memory of autobiographical events contextual in relation to time, place etc. was assessed 4 weeks after the surgery using object recognition task. Object recognition task was carried out using black circular arenas (50 cm height×50 cm diameter) made of PVC laminates. […] Discriminative index was calculated as ratio of time spent exploring the novel object divided by sum of time spent exploring the novel object and familiar object in choice trial.

[2] = test system: Aged rats; assay: Morris water maze task in aged rats (in vivo model for senile dementia); design: species or system rat; conditions: 10 mg/kg, p.o.
Protocol: Morris Water Maze Task (In Vivo Model for Senile Dementia): The water maze apparatus consisted of a circular pool (1.8 m diameter, 0.6 m high) constructed in black perspex (TSE, systems, Germany) filled with water (24° C.). The maze was positioned underneath a wide-angled video camera. A 16 cm diameter perspex platform, lying 1 cm below the water surface, was placed in the center of one of the four imaginary quadrants, which remained constant for all rats. The maze offered no intra-maze cues to guide the escape behavior, however, the training room offered several strong extra maze visual cues to aid escape learning. An automated tracking system (Videomot 2 (5.51), TSE systems, Germany) was employed to track animal and record the parameters. […] Aged rats (˜80 weeks old) were placed facing the wall of the maze and lowered gently, feet first into water. Rats were allowed to swim for 60 seconds to find the platform. If the platform was found during this time, the trial was stopped and rat was allowed to stay on platform for 10 seconds before being removed from the maze. If the platform was not found during the 60 seconds trial, rat was guided to the platform and allowed to stay on platform for 10 seconds before being removed from the maze. The rats were taken off the platform ensuring that the rat see the investigator's hand from the front before removal. They were dried gently with a towel. Each rat received 4 trials in a day. The maze has 8 starting points. On the first, third and fifth day the animals started from 1st, 3rd, 5th and 7th starting point and on the second and fourth day the animals started from 2nd, 4th, 6th and […]. […] Retention of the task was assessed on 10th day, during which each animal received a single 30 seconds probe trial. […] Latency to reach the platform (s), swim speed (cm/s) and path length (cm) were recorded during acquisition trials. Percentage time spent in target quadrant (quadrant in which platform was placed during acquisition training) and swim speed (cm/s) were recorded for the probe trial.

[3] = test system: CD1 mice; assay: Resident intruder task (in vivo model for aggression due to dementia); design: species or system mouse; conditions: 1, 3 and 10 mg/kg, p.o., 60 minutes prior to the trial, FIG. 4
Protocol: Resident Intruder Task (In Vivo Model for Aggression Due to Dementia): Male CD1 mice of weight 20-35 g (Resident), 15-25 g (Intruder) and ovariectomized female mice (20-25 g) were used. Resident mice were habituated individually with ovariectomized female mice in each cage. β-estradiol at a dose of 0.2 mg/kg, s.c. was administered to female mice during habituation. Intruders were habituated socially for 1 week. On day 1 and day 2, intruder was exposed to resident mice in resident's home cage for a period of 10 minutes and duration of attack was recorded. During this exposure period, female mice were removed from the cage. On day 4, animals were randomized based on their duration of attack and respective treatments were administered. […] After post dose interval, resident mice were exposed to same intruder for 10 min and duration of attack was recorded.

[4] = test system: BCCL rats; assay: Contextual fear conditioning in bilateral common carotid artery ligated rats (in vivo model for vascular dementia); design: species or system rat; conditions: 3 and 10 mg/kg, p.o., 60 min post dose, FIG. 5
Description: Contextual Fear Conditioning (In Vivo Model for Vascular Dementia): Male Wistar rats of age 2-3 months were used. Rats were induced vascular dementia by surgical procedure, which involves bilateral common carotid artery ligation (BCCL). Briefly, rats were anaesthetized using 2-5% isoflurane gaseous anesthesia. A dorsal incision was made near the neck region and two bilateral common carotid arteries were exposed. Both the arteries were separated from their sheaths and vagal nerves, and permanently ligated using 4-0 silk sutures. Sham animals were subjected to surgery except for ligation. After an induction period of 14 days, rats were examined in fear conditioning task. On day 1, rats were placed in the behavioral chamber and allowed to acclimatize for 1 min. Post acclimatization rats received a conditioned stimulus (CS) (tone for 10 sec) followed by an unavoidable foot shock (unconditioned stimulus (US): electric shock of 0.4 mA for 1 sec). Following a 40 sec interval between each administration, tone and shock were repeated to deliver a total of six CS-US pairings. […] After post dose interval of 60 min, animals were scored for the duration of freezing without shock stimulus. Shocking and scoring was controlled by Freeze frame software.

[5] = test system: Male Wistar rats; assay: Object recognition task in doxorubicin-treated rats (in vivo model for chemotherapy-induced cognitive impairment); design: species or system rat; conditions: DOX 2.5 mg/kg, i.p. treated male Wistar rats; SUVN-502 1 and 10 mg/kg, p.o.; FIG. 6
Protocol: Male Wistar rats (230-280 g) were used as experimental animals. Four animals were housed in each cage. Rats were acclimatized for 7 days (Days 1-7) to the laboratory conditions. Chemotherapy-induced cognitive impairment was induced by injecting doxorubicin (DOX) at 2.5 mg/kg, i.p. once in every 5 days up to 8 cycles (days 8-49). […] On experimental day 50, following 60 min of formulation dosing, animals were habituated to the arenas for 45 min. On day 51, animals were treated with their respective formulations 60 min prior to the familiarization trial (T1) during which rats was presented with two similar objects i.e., silver Milton flasks (a1 and a2) for 3 min. After an interval of 30 min, rats were subjected to choice trial (T2), with one familiar (silver, a3) and one novel (red, b) object for a period of 3 min. During the T1 and T2 trials, exploration time of each object (defined as sniffing, licking, chewing or having moving vibrissae whilst directing the nose towards the object at a distance of less than 1 cm) were recorded separately by hand held stop watch. • Reference: Behavioural Brain Research, 1988, 31, 47-59.

SMILES	effect on object memory deficits [1]	path length versus vehicle treated group ([2]; aged rats (~80 weeks old), acquisition days 3, 4 and 5, p<0.05, p<0.01)	target latency versus vehicle treated group ([2]; aged rats, days 3, 4 and 5, statistically significant (p<0.05, p<0.01) only on day 3 and 5)	time in the target quadrant during the probe trial versus vehicle ([2]; aged rats, probe trial on 10th day, p<0.05)	aggression levels (duration of attack) [3]	memory (duration of freezing) [4]	novel object recognition (exploration time, novel versus familiar object) [5]
COc1ccc2c(c1)c(CN1CCN(C)CC1)cn2S(=O)(=O)c1ccccc1Br [SUVN-502, 1-[(2-Bromophenyl)sulfonyl]-5-methoxy-3-[(4-methyl-1-piperazinyl)methyl]-1H-indole dimesylate monohydrate]	reversed the object memory deficits	significantly lesser	also lesser	more time in the target quadrant	decreased the aggression levels	improved the memory	increased novel object recognition
COc1cc2c(cc1OC)C(=O)C(CC1CCN(Cc3ccccc3)CC1)C2 (centres unmarked) [donepezil, reference compound]	did not reverse the object memory deficits						
